Assay [1] has as its target T1, YTHDF3 (residues 391-585) (Homo sapiens, UniProt Q7Z739).
T1 construct: YTHDF3 (residues 391–585); made in house; host or cells: Escherichia coli BL21(DE3); plasmid from the Zhou lab (Boston College)
T1 sequence (Q7Z739 391-585): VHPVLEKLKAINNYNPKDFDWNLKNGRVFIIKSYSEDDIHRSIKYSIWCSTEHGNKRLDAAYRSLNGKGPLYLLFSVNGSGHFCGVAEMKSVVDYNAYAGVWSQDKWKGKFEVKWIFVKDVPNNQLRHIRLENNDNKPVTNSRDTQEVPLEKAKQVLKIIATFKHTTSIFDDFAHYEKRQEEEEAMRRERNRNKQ
The assay can be described thus: FP assay with YTH domain of YTHDF3. The class given is binding. To be noted: 2.0 µM YTHDF3. As for the experimental part: The FP assay was performed in 384-well black plates (Corning no. 4514) with a total reaction volume of 15 μL. The final concentrations of protein (YTHDF2) and RNA were […], respectively, in a buffer containing 20 mM HEPES/KOH pH 7.5, 50 mM NaCl, 0.005% Tween 20, and 1 mM GSH (DTT). Compounds were incubated with protein, added FAM-m^6A RNA probe ([…](m6)ACUGUG) (purchased from IDT), and incubated at 4 °C for 30 min. The fluorescence polarization was measured using a plate reader (TECAN Spark) under an excitation wavelength of 485 nm and an emission wavelength of 535 nm with a bandwidth of 20 nm. […] The data were determined using GraphPad Prism 9.
Figure S9. The FP assay of YTHDF3 binding to the m6A RNA substrate. (A) The purification of YTHDF3 (residues 391-585), molecular weight: 24.1 kDa. (B) The anisotropy values using different concentrations of YTHDF3 with the m6A RNA probe (4 nM), which was used to decide the appropriate […] concentration for the FP (2.0 µM of YTHDF3, Z-factor: 0.55). (C) The […]
(§1) (1 picture or pasted object on this page, not shown here)

Assay [2] relates to K562 and JAR cells. The assay can be described thus: Dot blot assay of cellular RNA m6A methylation level. It is filed as cell-based, human. To be noted: different concentrations, highest 25 μM. The protocol: JAR and K562 cells were seeded in six-well plates (1.0 × 10^6 cells/well) and incubated overnight. The cells were scraped off directly and then washed with PBS. Total RNA was then extracted with the Aurum Total RNA Mini Kit. The RNA concentration was determined by NanoDrop 2000c (Thermo) and then heated for 5 min at 95 °C. Primary antibody Rb pAb to N^6-methyladenosine (m^6A) (Abcam, ab286164, 1:1000) and secondary antibody HRP-conjugated AffiniPure Goat Anti-Rabbit IgG(H+L) (SA00001–2, 1:8000) were used. Chemiluminescent detection was performed using a ChemiDoc MP (Bio-Rad).

The subject of assay [3] is JAR. The assay can be described thus: CCK-8 proliferation assay, JAR. The class given is cell-based. The note with it: Homo sapiens; CCK-8 kit assay, triplicates, 72 h; read-out: Anti-proliferation activity against cancer cells (IC50), JAR. The protocol: (§2) The JAR, K562, HCT116, and MOLM13 cells were seeded in 96-well plates (3000 cells/well). After being cultured overnight, compounds were added together with the DMSO treatment (0.1%) as a control. After 72 h, CCK-8 solution (Vazyme, A311) was added, and the cells were incubated at 37 °C for 4 h. The absorbance was measured at 450 nm using a plate reader (TECAN Spark).

For assay [4], the target named is T2, YTHDF2 (Homo sapiens, UniProt Q9Y5A9).
T2 construct: A YTHDF2 YTH domain construct (residues 383–553) was subcloned to a pOPIN plasmid; made in house; host or cells: Escherichia coli BL21(DE3)
T2 sequence (Q9Y5A9 383-553): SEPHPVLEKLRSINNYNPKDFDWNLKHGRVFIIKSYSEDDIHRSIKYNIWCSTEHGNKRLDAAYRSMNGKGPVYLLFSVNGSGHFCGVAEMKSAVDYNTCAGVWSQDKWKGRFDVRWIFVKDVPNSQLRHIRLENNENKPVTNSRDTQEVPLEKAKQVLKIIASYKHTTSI
The assay can be described thus: nanoDSF thermal shift assay. It is filed as binding. The note with it: for ΔTm at 5 µM: 5 μM compound; for ΔTm at 10 µM: 10 μM compound. As for the experimental part: NanoDSF was measured on a NanoTemper instrument (Prometheus NT.48). YTHDF2 protein was used at a concentration of 5 μM and incubated with 50, 25, 10, and 5 μM compound in buffer (100 mM KPi, pH 7.0, 250 mM NaCl, 10% Glycerol) for 50 min, in which 0.1% DMSO was used as the reference. The heat rate was set to 1 °C per minute, measured in a range between 20 and 90 °C.

Assay [5] deals with T3, YTHDF2 (residues 383–553) (Homo sapiens, UniProt Q9Y5A9).
T3 construct: A YTHDF2 YTH domain construct (residues 383–553) was subcloned to a pOPIN plasmid; made in house; host or cells: Escherichia coli BL21(DE3)
T3 sequence (Q9Y5A9 383-553): T2 sequence (Q9Y5A9 383-553)
Description: Fluorescence polarization (FP) assay, YTHDF2–m6A RNA interaction. It is filed as binding. The note with it: for inhibition at 100 µM / inhibition at 100 μM in the FP assay: 100 μM compound, YTHDF2 (residues 383–553, 20 nM), FAM-labeled m6A RNA probe 5 nM, average ± SD; for inhibitory IC50 in FP (in words): YTHDF2–m6A RNA interaction, Figure S2. An outline of the steps:
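Read-out is fluorescence polarization (485 nm excitation, 535 nm emission) after 30 min at 4 °C. Buffer: 20 mM HEPES/KOH pH 7.5, 50 mM NaCl, 0.005% Tween 20, 1 mM GSH (DTT); YTHDF2 at 20 nM was exposed to compound first, then FAM-m6A RNA probe added at 5 nM.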

Assay [6] deals with T2, YTHDF2. The assay can be described thus: Electrophoretic mobility shift assay (EMSA). It is filed as binding. The note with it: for inhibition of the YTHDF2–m6A RNA interaction in EMSA at 100 μM (in words): 100 μM compound, 250 nM YTHDF2, FAM-labeled m6A RNA; for concentration-dependent inhibition of YTHDF2–m6A RNA complex formation in EMSA (in words): 3.1–100 μM compound, 250 nM YTHDF2, 20 nM FAM-labelled m6A RNA. As for the experimental part: Compounds with different concentrations (3.1–100 μM) were incubated with 250 nM YTH-domain and 20 nM FAM-17mer-RNA in a buffer containing 20 mM HEPES, pH 8.2, 50 mM NaCl, 0.05% Triton X-100, and 5% v/v glycerol for 20 min at 4 °C. […] Gel imaging was performed in ChemiDoc MP (Bio-Rad), and Cy2/Alexa488 fluorescence was detected with a 1-min exposure time. Quantification of the gel image was performed by ImageJ.

Assay [7] has as its target T4, YTHDF3 (Homo sapiens, UniProt Q7Z739).
T4 construct: YTHDF3 (residues 391–585); made in house; host or cells: Escherichia coli BL21(DE3); plasmid from the Zhou lab (Boston College)
T4 sequence (Q7Z739 391-585): T1 sequence (Q7Z739 391-585)
The assay can be described thus: EMSA with YTHDF3. It is filed as binding. The note with it: m6A RNA 20 nM. The protocol:
Compounds with different concentrations (3.1–100 μM) were incubated with 250 nM YTH-domain and 20 nM FAM-17mer-RNA in a buffer containing 20 mM HEPES, pH 8.2, 50 mM NaCl, 0.05% Triton X-100, and 5% v/v glycerol for 20 min at 4 °C. The samples were subjected to 12% native polyacrylamide gel and run at 120 V for 90 min at 4 °C using 0.5× TBE buffer. Gel imaging was performed in ChemiDoc MP (Bio-Rad), and Cy2/Alexa488 fluorescence was detected with a 1-min exposure time. Quantification of the gel image was performed by ImageJ.
Figure S13. The EMSA of YTHDF3 binding to the m 6A RNA substrate. (A) The YTHDF 3–RNA
complex formation in EMSA using m 6A RNA (20 nM) and different concentrations of YTHDF1 . (B)
as §1

Assay [8] deals with HCT116. The assay can be described thus: CCK-8 proliferation assay, HCT116. The class given is cell-based. The note with it: Homo sapiens, HCT-116; CCK-8 kit assay, triplicates, 72 h; read-out: Anti-proliferation activity against cancer cells (IC50), HCT116. As for the experimental part:
as §2

“Also recorded” adds a separate entry of the source.

Take `O=C(O)c1ccc(-n2cc(C(=O)c3cc(Cl)cc(Cl)c3O)cn2)cc1` [CK-61]: in assay [1] (read-out: inhibition of YTHDF3 at 100 μM in FP, 100 μM compound), the inhibition at 100 µM worked out at 12.4%. In assay [2], the “effect on global m6A RNA abundance (dot blot, in words)” value (from here on “effect on global m6A RNA abundance”) was “slight increase”. The IC50 in assay [3] is greater than 50 µM. In addition, in assay [4], the ΔTm at 5 µM was 0.94 ± 0.58 °C and the ΔTm at 10 µM turned out to be 1.56 ± 0.41 °C. The ΔTm at 25 µM in assay [4] (25 μM compound) was found to be 3.21 °C. Besides, in assay [5], the inhibition at 100 µM was greater than 70%, the “inhibition at 100 μM in the FP assay” value came to 81.4 ± 10.7% and the “inhibitory IC50 in FP (in words)” value was “low double-digit micromolar”. For the same compound, in assay [6], the “inhibition of the YTHDF2–m6A RNA interaction in EMSA at 100 μM (in words)” value was “potent inhibition; also recorded: potently inhibited” and the “concentration-dependent inhibition of YTHDF2–m6A RNA complex formation in EMSA (in words)” value is “potent inhibition”. Further, the “inhibition of m6A RNA binding to YTHDF3 in EMSA (in words)” value (“inhibition of m6A RNA binding to YTHDF3” for short) in assay [7] was “did not show detectable inhibitory activity; also recorded: no activity”. The IC50 in assay [8] is greater than 50 µM.
With `O=C(O)c1ccc(-n2cc(C(=O)c3c(O)ccc4ccccc34)cn2)cc1` [CK-75], the “inhibitory activity against YTHDF3 in FP (in words)” value in assay [1] was “inactive”. In addition, the “effect on global m6A RNA abundance” value in assay [2] is listed as “did not significantly impact”. Besides, the “inhibition of m6A RNA binding to YTHDF3” value in assay [7] is “did not show detectable inhibitory activity; also recorded: did not show detectable inhibition”.
As for `Cc1cc(O)c(C(=O)c2cnn(-c3ccc(C(=O)O)cc3)c2)cc1Cl` [CK-79], the “effect on global m6A RNA abundance” value in assay [2] is “did not significantly impact”. Further, the IC50 in assay [3] came to 32.1 ± 6.3 µM. Also, in assay [4], the ΔTm at 5 µM is 0.96 ± 0.08 °C and the ΔTm at 10 µM was determined as 1.39 ± 0.37 °C. Besides, in assay [5], the inhibition at 100 µM is greater than 70%, the “inhibition at 100 μM in the FP assay” value came out at 70.3 ± 5.1% and the “inhibitory IC50 in FP (in words)” value is on record as “low double-digit micromolar”. In assay [6], the “inhibition of the YTHDF2–m6A RNA interaction in EMSA at 100 μM (in words)” value is “potent inhibition; also recorded: potently inhibited” and the “concentration-dependent inhibition of YTHDF2–m6A RNA complex formation in EMSA (in words)” value is listed as “potent inhibition”. Also, the “inhibition of m6A RNA binding to YTHDF3” value in assay [7] was “did not show detectable inhibitory activity; also recorded: did not show detectable inhibition”. The IC50 in assay [8] stood at 44 ± 6.8 µM.

The values are drawn from paper PMC11862924, “Phenylpyrazoles as Inhibitors of the m^6A RNA-Binding Protein YTHDF2” (JACS Au, 2025).
